Tested on: Wistar (Crl:WI(Han)) rats
Experiment: Mass spectrometry-based plasma metabolite profiling of rats treated with known inducers of thyroid function impairment
Assay type: in vivo, rat
Conditions: ratio of group medians vs controls
Source text: At the beginning of the study the animals were 10-11 weeks old. Each dose group in the studies consisted of five rats per sex, and was compared with controls (10 rats per sex). […] The dose levels were chosen to show the typical overt (high dose) and slight (low dose) toxicological symptoms of the substances as described in the literature or in BASF internal study reports.
Blood samples were withdrawn from the retro-orbital sinus in all rats under isoflurane anesthesia on study days 7, 14 and 28 after a fasting period of 16-20 hours.
For mass spectrometry-based metabolite profiling analysis, plasma samples were extracted by a proprietary method which delivers a polar and a non-polar fraction. For GC-MS analysis, the non-polar fraction was treated with methanol under acidic conditions to yield the fatty acid methyl esters. Both fractions were further derivatised with Omethyl-hydroxyamine hydrochloride and pyridine to convert oxo groups to Omethyloximes and subsequently with a silylating agent before analysis.
In LC-MS/MS analysis, both fractions were reconstituted in appropriate solvent mixtures. HPLC was performed by gradient elution on reversed phase separation columns. For mass spectrometric detection metanomics proprietary technology was applied, which allows target and high sensitivity MRM (Multiple Reaction Monitoring) profiling in parallel to a full screen analysis. […] Moreover, several hundred additional analytes giving a fingerprint of the sample were included in the methods.
Following comprehensive analytical validation steps, the data for each analyte were normalized against data from pool samples. These samples were run in parallel through the whole process to account for process variability.
The sex- and day-stratified heteroscedastic t-test (“Welch test”) was applied to compare treated groups with respective controls. p-Values and ratios of corresponding group medians were collected as metabolic profiles and fed into a database.

[1] = female rats, fh7 (study day 7), Table 1
[2] = female rats, fh14 (study day 14), Table 1
[3] = female rats, fh28 (study day 28), Table 1
[4] = male rats, mh7 (study day 7), Table 2
[5] = male rats, mh7 (study day 7), Table 4
[6] = male rats, mh14 (study day 14), Table 2
[7] = male rats, mh14 (study day 14), Table 4
[8] = male rats, mh28 (study day 28), Table 2
[9] = male rats, mh28 (study day 28), Table 4

5-O-Methylsphingosine [1]: 3.55 | Asparagine [1]: 1.17 | Behenic acid (C22:0) [1]: 2.08 | Citrate [1]: 0.83 | Docosahexaenoic acid (C22:cis[4,7,10,13,16]6) [1]: 2.16 | Glycine [1]: 1.14 | Ketoleucine [1]: 0.86 | Lysophosphatidylcholine (C18:2) [1]: 1.52 | Phosphatidylcholine (C16:1, C18:2) [1]: 1.89 | Phosphatidylcholine (C18:2, C20:4) [1]: 1.39 | Pyruvate [1]: 0.62 | Tricosanoic acid (C23:0) [1]: 2.05 | erythro-Sphingosine [1]: 2.56 | threo-Sphingosine [1]: 2.46 | Sphingomyelin (d18:1, C16:0) (female rats, fh7 (study day 7), Table 1, first listing): 1.89 | Sphingomyelin (d18:1, C16:0) (female rats, fh7 (study day 7), Table 1, second listing): 1.45 | 5-O-Methylsphingosine [2]: 3.80 | Asparagine [2]: 1.12 | Behenic acid (C22:0) [2]: 2.63 | Citrate [2]: 0.76 | Docosahexaenoic acid (C22:cis[4,7,10,13,16]6) [2]: 1.32 | Glycine [2]: 1.14 | Ketoleucine [2]: 0.80 | Lysophosphatidylcholine (C18:2) [2]: 1.57 | Phosphatidylcholine (C16:1, C18:2) [2]: 2.40 | Phosphatidylcholine (C18:2, C20:4) [2]: 1.25 | Pyruvate [2]: 0.53 | Tricosanoic acid (C23:0) [2]: 2.54 | erythro-Sphingosine [2]: 3.21 | threo-Sphingosine [2]: 3.21 | Sphingomyelin (d18:1, C16:0) (female rats, fh14 (study day 14), Table 1, first listing): 2.54 | Sphingomyelin (d18:1, C16:0) (female rats, fh14 (study day 14), Table 1, second listing): 1.44 | 5-O-Methylsphingosine [3]: 2.83 | Asparagine [3]: 1.12 | Behenic acid (C22:0) [3]: 2.03 | Citrate [3]: 0.84 | Docosahexaenoic acid (C22:cis[4,7,10,13,16]6) [3]: 1.22 | Glycine [3]: 1.28 | Ketoleucine [3]: 0.78 | Lysophosphatidylcholine (C18:2) [3]: 1.31 | Phosphatidylcholine (C16:1, C18:2) [3]: 2.21 | Phosphatidylcholine (C18:2, C20:4) [3]: 1.33 | Pyruvate [3]: 0.79 | Tricosanoic acid (C23:0) [3]: 1.96 | erythro-Sphingosine [3]: 2.44 | threo-Sphingosine [3]: 2.37 | Sphingomyelin (d18:1, C16:0) (female rats, fh28 (study day 28), Table 1, first listing): 1.77 | Sphingomyelin (d18:1, C16:0) (female rats, fh28 (study day 28), Table 1, second listing): 1.31 | 3-O-Methylsphingosine [4]: 3.47 | 5-O-Methylsphingosine [4]: 3.57 | 14-Methyl-Pentadecanoic acid [4]: 1.13 | 17-Methyloctadecanoic acid [4]: 1.36 | Arginine [4]: 1.09 | Cholesterol [4]: 1.98 | Citrate [4]: 0.69 | Dihom-gamma-Linolenic acid (C20:cis[8,11,14]3) [4]: 2.38 | Lignoceric acid (C24:0) [4]: 2.12 | Phytosphingosine [4]: 2.08 | Sphingomyelin (d18:1, C16:0) [4]: 2.24 | Tricosanoic acid (C23:0) [4]: 1.93 | alpha-Tocopherol [4]: 1.76 | erythro-Sphingosine [4]: 2.92 | threo-Sphingosine [4]: 3.02 | Glutamate (male rats, mh7 (study day 7), Table 2, first listing): 0.61 | Glutamate (male rats, mh7 (study day 7), Table 2, second listing): 0.75 | Behenic acid (C22:0) [5]: 2.02 | Cholesterol [5]: 1.69 | Citrate [5]: 0.69 | Cytosine [5]: 0.65 | Galactose, lipid fraction [5]: 1.60 | Glycerol phosphate [5]: 2.09 | Glycine [5]: 1.42 | Lignoceric acid (C24:0) [5]: 2.12 | Mannose [5]: 1.06 | Nervonic acid C24:(cis[15]1) [5]: 2.59 | Phospha-tidylcholine (C18:0, 18:2) [5]: 1.11 | Sphingomyelin (d18:1, C16:0) [5]: 2.24 | Stearic acid (C18:0) [5]: 1.34 | Threonic acid [5]: 0.72 | dihomo-gamma-Linolenic acis (C20:cis[8,11,14]3) [5]: 2.38 | erythro-Sphingosine [5]: 2.92 | myo-Inositol-2-phosphate [5]: 2.55 | threo-Sphingosine [5]: 3.02 | 3-O-Methylsphingosine [6]: 3.85 | 5-O-Methylsphingosine [6]: 4.15 | 14-Methyl-Pentadecanoic acid [6]: 0.85 | 17-Methyloctadecanoic acid [6]: 0.92 | Arginine [6]: 1.09 | Cholesterol [6]: 2.31 | Citrate [6]: 0.69 | Dihom-gamma-Linolenic acid (C20:cis[8,11,14]3) [6]: 3.22 | Lignoceric acid (C24:0) [6]: 2.82 | Phytosphingosine [6]: 2.92 | Sphingomyelin (d18:1, C16:0) [6]: 2.27 | Tricosanoic acid (C23:0) [6]: 2.69 | alpha-Tocopherol [6]: 2.66 | erythro-Sphingosine [6]: 3.71 | threo-Sphingosine [6]: 3.78 | Glutamate (male rats, mh14 (study day 14), Table 2, first listing): 0.57 | Glutamate (male rats, mh14 (study day 14), Table 2, second listing): 0.49 | Behenic acid (C22:0) [7]: 3.03 | Cholesterol [7]: 1.93 | Citrate [7]: 0.69 | Cytosine [7]: 0.46 | Galactose, lipid fraction [7]: 1.46 | Glycerol phosphate [7]: 1.67 | Glycine [7]: 1.25 | Lignoceric acid (C24:0) [7]: 2.82 | Mannose [7]: 1.04 | Nervonic acid C24:(cis[15]1) [7]: 3.00 | Phospha-tidylcholine (C18:0, 18:2) [7]: 1.28 | Sphingomyelin (d18:1, C16:0) [7]: 2.27 | Stearic acid (C18:0) [7]: 1.40 | Threonic acid [7]: 0.69 | dihomo-gamma-Linolenic acis (C20:cis[8,11,14]3) [7]: 3.22 | erythro-Sphingosine [7]: 3.71 | myo-Inositol-2-phosphate [7]: 2.35 | threo-Sphingosine [7]: 3.78 | 3-O-Methylsphingosine [8]: 4.55 | 5-O-Methylsphingosine [8]: 3.40 | 14-Methyl-Pentadecanoic acid [8]: 0.54 | 17-Methyloctadecanoic acid [8]: 0.45 | Arginine [8]: 1.14 | Cholesterol [8]: 2.03 | Citrate [8]: 0.73 | Dihom-gamma-Linolenic acid (C20:cis[8,11,14]3) [8]: 2.02 | Lignoceric acid (C24:0) [8]: 2.16 | Phytosphingosine [8]: 3.04 | Sphingomyelin (d18:1, C16:0) [8]: 1.92 | Tricosanoic acid (C23:0) [8]: 2.50 | alpha-Tocopherol [8]: 2.18 | erythro-Sphingosine [8]: 3.47 | threo-Sphingosine [8]: 4.30 | Glutamate (male rats, mh28 (study day 28), Table 2, first listing): 0.46 | Glutamate (male rats, mh28 (study day 28), Table 2, second listing): 0.40 | Behenic acid (C22:0) [9]: 3.01 | Cholesterol [9]: 1.56 | Citrate [9]: 0.73 | Cytosine [9]: 0.39 | Galactose, lipid fraction [9]: 1.53 | Glycerol phosphate [9]: 1.46 | Glycine [9]: 0.98 | Lignoceric acid (C24:0) [9]: 2.16 | Mannose [9]: 0.87 | Nervonic acid C24:(cis[15]1) [9]: 2.23 | Phospha-tidylcholine (C18:0, 18:2) [9]: 1.35 | Sphingomyelin (d18:1, C16:0) [9]: 1.92 | Stearic acid (C18:0) [9]: 1.16 | Threonic acid [9]: 0.69 | dihomo-gamma-Linolenic acis (C20:cis[8,11,14]3) [9]: 2.02 | erythro-Sphingosine [9]: 3.47 | myo-Inositol-2-phosphate [9]: 1.85 | threo-Sphingosine [9]: 4.30
SMILES: Cn1cc[nH]c1=S [Methimazole]

Reference: US20120132797A1, “MEANS AND METHODS FOR DIAGNOSING THYROID DISORDERS” (BASF SE, priority 2009, published 2012)
